{"source": "patent US20150315218A1", "about": "“SALTS OF PRODRUGS OF PIPERAZINE AND SUBSTITUTED PIPERIDINE ANTIVIRAL AGENTS” (Bristol-Myers Squibb Company, priority 2004, published 2015)", "key": {"[1]": {"test": "IV and PO pharmacokinetic studies of prodrug salts (Iab, Ibb, Icb) in the monkey, with historical parent data", "assay_type": "in vivo, cynomolgus monkeys", "settings": "monkey; for half-life: after IV prodrug, read-out: t1/2 (hr), IV (converted); for clearance / Vd: prodrug after IV administration; for clearance: read-out: CLtot (mL/min/kg), IV; for Vd: read-out: Vdss (L/kg), IV", "outline": "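Crossover IV/PO studies in three male cynomolgus monkeys per prodrug, two-week washout. Iab given as 5-min femoral-vein infusion at 1.3 mg/kg (free acid; 1.1 mg/kg IVa equivalent) and by gavage to fasted animals at 7.1 mg/kg (5.6 mg/kg IVa equivalent); serial blood sampling to 24 h.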"}, "[2]": {"test": "Single-dose oral toxicokinetic study of prodrugs in rats", "assay_type": "in vivo, rat", "settings": "for half-life / AUC / Cmax: rat, plasma; for C24 h: mean", "outline": "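Male rats, three per group, received a single oral gavage dose of prodrug salt dissolved in water. Doses were 16, 72 or 267 mg/kg (Iab), 19, 64 or 236 mg/kg (Ibb), and 5, 25 or 200 mg/kg (Icb), all as free acid. Plasma toxicokinetics of prodrug and parent IVa were followed in individual animals.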"}, "[3]": {"test": "Single-dose toxicokinetic and tolerability study of prodrugs in dogs", "assay_type": "in vivo, dog", "settings": "for clinical signs, body weight and food consumption / emesis: oral prodrug", "outline": "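Female dogs (two/group) received prodrug Iab orally once daily at 24, 90 or 240 mg/kg (free acid) as aqueous solution or dry-filled capsules, one-week washouts between doses. Ibb and Icb given to one dog/sex/group as capsules, then aqueous 25 mg/kg or capsules 46 or 125 mg/kg BID. Clinical signs, body weight, food intake and plasma toxicokinetics monitored.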"}, "[4]": {"settings": "male, cynomolgus monkey, plasma, analyte = label"}, "[5]": {"settings": "male, cynomolgus monkey, plasma"}}, "note": "“Also recorded” adds a separate entry of the source. Where a name gives a salt, the structure may show the parent alone.", "data": [{"smiles": "COc1cnc(OC)c2c1c(C(=O)C(=O)N1CCN(C(=O)c3ccccc3)CC1)cn2COP(=O)(O)O", "note": "[Iab, {3-[(4-benzoylpiperazin-1-yl)(oxo)acetyl]-4,7-dimethoxy-1H-pyrrolo[2,3-c]pyridin-1-yl}methyl dihydrogen phosphate, L-lysine salt (1:1)]", "values": [{"measurement": "concentration at 15 min", "setting": "[1]; male, cynomolgus monkey, plasma, po, LLQ = 5 nM, read-out: prodrug detected in plasma after oral administration", "value": 0.018, "unit": "µM"}, {"measurement": "AUC", "setting": "[1]; male, cynomolgus monkey, plasma, after IV prodrug (~1.1 mg/kg parent equivalent), analyte = label, read-out: AUCtot (μM · hr), IV", "value": "9500 ± 380", "unit": "nM·h"}, {"measurement": "half-life", "setting": "[1]; [4]", "value": 1, "unit": "h"}, {"measurement": "clearance", "setting": "[1]; [5]", "value": 4.4, "unit": "mL/min/kg"}, {"measurement": "Vd", "setting": "[1]; [5]", "value": 0.048, "unit": "L/kg"}, {"measurement": "half-life", "setting": "[2]; CD, male rats, Iab 16 mg/kg PO, analyte = label, read-out: T½ (converted)", "value": 38.4, "unit": "min"}, {"measurement": "half-life", "setting": "[2]; CD, male rats, Iab 72 mg/kg PO, analyte = label, read-out: T½ (converted)", "value": 22.2, "unit": "min"}, {"measurement": "AUC", "setting": "[2]; CD, male rats, Iab 267 mg/kg PO, AUC from zero to time of last quantifiable sample, read-out: AUC", "value": 57, "unit": "nM·h"}, {"measurement": "half-life", "setting": "[2]; CD, male rats, Iab 267 mg/kg PO, analyte = label, read-out: T½ (converted)", "value": 2.7, "unit": "min"}, {"measurement": "Cmax", "setting": "[2]; CD, male rats, single oral dose Iab 16 mg/kg (13 mg/kg IVa molar equiv.), water, analyte = label", "value": 0.068, "unit": "µM"}, {"measurement": "Cmax", "setting": "[2]; CD, male rats, single oral dose Iab 72 mg/kg (57 IVa equiv.), analyte = label", "value": 0.095, "unit": "µM"}, {"measurement": "Cmax", "setting": "[2]; CD, male rats, single oral dose Iab 267 mg/kg (211 IVa equiv.), analyte = label", "value": 0.11, "unit": "µM"}, {"measurement": "C24 h (μM)", "setting": "[2]; male rats, Iab 16 mg/kg PO, analyte = label", "value": "<LLQ^1"}, {"measurement": "C24 h (μM)", "setting": "[2]; male rats, Iab 72 mg/kg PO, analyte = label", "value": "<LLQ"}, {"measurement": "C24 h (μM)", "setting": "[2]; male rats, Iab 267 mg/kg PO, analyte = label", "value": "<LLQ"}, {"measurement": "AUC", "setting": "[2]; male, CD, po, 16 mg/kg, read-out: AUC", "value": 20, "unit": "nM·h"}, {"measurement": "AUC", "setting": "[2]; male, CD, po, 72 mg/kg, read-out: AUC", "value": 49, "unit": "nM·h"}, {"measurement": "plasma AUC of the prodrug relative to that of the parent", "setting": "[2]; rats, single oral dose of Iab", "value": "≤ 0.03", "unit": "%"}, {"measurement": "percentage of estimated total dose lost in vomit", "setting": "[3]; Dog #1201 (90 mg/kg Iab)", "value": "< 1", "unit": "%"}, {"measurement": "percentage of estimated total dose lost in vomit", "setting": "[3]; Dog #2201 (240 mg/kg Iab)", "value": "≈ 90%"}, {"measurement": "percentage of estimated total dose lost in vomit", "setting": "[3]; Dog #2202 (240 mg/kg Iab)", "value": "≈ 9%"}, {"measurement": "clinical signs, body weight and food consumption", "setting": "[3]; dogs", "value": "Other than emesis, there were no clinical signs observed, and there no effects on body weight and food consumption"}, {"measurement": "emesis", "setting": "[3]; dogs", "value": "Emesis was observed at about 30 minutes after dosing in both dogs given 90 mg/kg; also recorded: Emesis was observed in Dogs #1201, #2201, and #2202 about 1 hour after dosing"}, {"measurement": "concentration at 1 h", "setting": "[3]; female, dog, plasma, oral, dogs, 1 hour post dose, Iab 90-240 mg/kg phase, read-out: prodrug detected in plasma", "value": "0.005 to 0.049", "unit": "µM"}, {"measurement": "concentration at 2 h", "setting": "[3]; female, dog, plasma, oral, dogs, 2 hours post dose, Iab 90-240 mg/kg phase, read-out: prodrug detected in plasma", "value": "0.005 to 0.006", "unit": "µM"}, {"measurement": "prodrug in the plasma samples", "setting": "[3]; initial phase, Iab 24 or 90 mg/kg", "value": "not detected"}]}, {"smiles": "O=C(C(=O)N1CCN(C(=O)c2ccccc2)CC1)c1cn(COP(=O)(O)O)c2c(-n3ccnn3)ncc(F)c12", "note": "[Ibb, [3-[(4-benzoylpiperazin-1-yl)(oxo)acetyl]-4-fluoro-7-(1H-1,2,3-triazol-1-yl)-1H-pyrrolo[2,3-c]pyridin-1-yl]methyl dihydrogen phosphate, L-lysine salt (1:1)]", "values": [{"measurement": "half-life", "setting": "[1]; [4]", "value": 0.1, "unit": "h"}, {"measurement": "clearance", "setting": "[1]; [5]", "value": 28, "unit": "mL/min/kg"}, {"measurement": "Vd", "setting": "[1]; [5]", "value": 0.15, "unit": "L/kg"}, {"measurement": "prodrug detected in plasma after oral administration", "setting": "[1]; LLQ = 5 nM", "value": "not detected"}, {"measurement": "C24 h", "setting": "[2]; male rats, single oral dose Ibb 19 mg/kg (IVb molar equiv. 15 mg/kg)", "value": "<LLQ"}, {"measurement": "C24 h", "setting": "[2]; male rats, single oral dose Ibb 64 mg/kg (IVb molar equiv. 51 mg/kg)", "value": "<LLQ"}, {"measurement": "C24 h", "setting": "[2]; male rats, single oral dose Ibb 236 mg/kg (IVb molar equiv. 190 mg/kg)", "value": "<LLQ"}, {"measurement": "Cmax", "setting": "[2]; male, Sprague Dawley, po, 19 mg/kg", "value": 0.027, "unit": "µM"}, {"measurement": "AUC", "setting": "[2]; male, Sprague Dawley, po, 19 mg/kg, read-out: AUC from zero to last time point", "value": 30, "unit": "nM·h"}, {"measurement": "half-life", "setting": "[2]; male, Sprague Dawley, po, 19 mg/kg, read-out: T1/2 (converted)", "value": 78, "unit": "min"}, {"measurement": "Cmax", "setting": "[2]; male, Sprague Dawley, po, 64 mg/kg", "value": 0.14, "unit": "µM"}, {"measurement": "AUC", "setting": "[2]; male, Sprague Dawley, po, 64 mg/kg, read-out: AUC from zero to last time point", "value": 180, "unit": "nM·h"}, {"measurement": "half-life", "setting": "[2]; male, Sprague Dawley, po, 64 mg/kg, read-out: T1/2 (converted)", "value": 276, "unit": "min"}, {"measurement": "Cmax", "setting": "[2]; male, Sprague Dawley, po, 236 mg/kg", "value": 0.25, "unit": "µM"}, {"measurement": "AUC", "setting": "[2]; male, Sprague Dawley, po, 236 mg/kg, read-out: AUC from zero to last time point", "value": 490, "unit": "nM·h"}, {"measurement": "half-life", "setting": "[2]; male, Sprague Dawley, po, 236 mg/kg, read-out: T1/2 (converted)", "value": 216, "unit": "min"}, {"measurement": "clinical signs, body weight and food consumption", "setting": "[3]; dogs", "value": "Other than emesis, there were no clinical signs observed, and there were no effects on body weight and food consumption"}, {"measurement": "emesis", "setting": "[3]; dogs", "value": "emesis (white, streaked with red that contained capsule remnants) was observed at about 0.5-1.25 hours after dosing in all dogs given ≧92 mg/kg QD; also recorded: emesis (white or brown) was observed within 2 hours after dosing in all dogs given ≧46 mg/kg BID"}]}]}
